Assays:
Type in all cases: biochemical
[1] = target: T1, PKK in kaolin activated human platelet poor plasma (Homo sapiens, UniProt P03952); assay: Inhibition of PKK in kaolin activated human PPP; settings: 25-750 μg/mL kaolin, global fit, text b200 calls the values IC90;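 note: readout is the rate of fluorogenic substrate cleavage in rfu per min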
T1 construct: Platelet poor plasma (PPP) obtained from human wholeblood; from tissue
Experimental: Platelet poor plasma (PPP) obtained from human wholeblood, anticoagulated with Na-Citrate, is incubated with various concentrations of the test compound together with either 25, 75, 250, or 750 μg/mL kaolin in assay buffer for 20 min at 37° C. such that for each kaolin dose used a concentration response is obtained for the test compound.

Human PKK = target: T2, Human PKK (Homo sapiens, UniProt P03952); assay: Inhibition of PKK using an endpoint assay (human PKK); settings: fluorogenic substrate H-Pro-Phe-Arg-AMC, 1 h room temperature, method names human or rat PKK, table does not say which
T2 construct: purchased Enzyme Research Laboratories
T2 sequence (P03952 20-390 limits assumed): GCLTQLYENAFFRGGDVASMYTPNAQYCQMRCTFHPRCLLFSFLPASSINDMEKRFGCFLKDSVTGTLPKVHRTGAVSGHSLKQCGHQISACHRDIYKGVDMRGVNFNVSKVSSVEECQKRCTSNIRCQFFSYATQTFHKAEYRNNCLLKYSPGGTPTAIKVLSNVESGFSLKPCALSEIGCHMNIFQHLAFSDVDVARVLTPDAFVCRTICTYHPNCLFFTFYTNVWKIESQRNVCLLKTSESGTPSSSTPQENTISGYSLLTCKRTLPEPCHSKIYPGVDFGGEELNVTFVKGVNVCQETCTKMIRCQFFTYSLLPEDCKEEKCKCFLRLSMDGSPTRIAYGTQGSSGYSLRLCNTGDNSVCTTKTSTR
T2 sequence (P03952 391-638 limits assumed): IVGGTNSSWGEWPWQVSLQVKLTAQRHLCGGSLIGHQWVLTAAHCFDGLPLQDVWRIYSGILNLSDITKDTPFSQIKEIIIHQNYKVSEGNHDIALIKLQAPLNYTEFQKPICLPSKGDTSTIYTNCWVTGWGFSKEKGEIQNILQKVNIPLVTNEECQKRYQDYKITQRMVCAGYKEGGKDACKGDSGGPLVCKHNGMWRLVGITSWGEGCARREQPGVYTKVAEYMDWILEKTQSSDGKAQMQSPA
In short: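 Endpoint fluorescence (ex 355 nm, em 460 nm) after stopping with 1 μM final PPACK II. Buffer: Tris 100 mM pH 7.8, NaCl 150 mM, BSA 0.1%, Tween20 0.05%, with 1% DMSO present; enzyme is human plasma kallikrein.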

human TK1 = target: T3, human TK1 (Homo sapiens, UniProt P06870); assay: Inhibition of TK1 (Ki); settings: activated human TK1, substrate H-Pro-Phe-Arg-AMC, 24° C.
T3 construct: purchased R&D Systems
T3 sequence (P06870 25-262): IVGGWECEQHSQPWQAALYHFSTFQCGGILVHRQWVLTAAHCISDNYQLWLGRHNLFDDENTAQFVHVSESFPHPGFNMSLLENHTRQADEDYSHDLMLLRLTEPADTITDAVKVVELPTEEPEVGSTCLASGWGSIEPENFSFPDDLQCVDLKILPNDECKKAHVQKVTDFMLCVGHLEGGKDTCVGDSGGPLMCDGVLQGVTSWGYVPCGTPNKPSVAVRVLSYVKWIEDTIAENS
Experimental: The ability of compounds of formula (I) to inhibit plasma kallikrein (PKK), Factor XIIa (FXIIa), Factor XIa (FXIa), Factor Xa (FXa), Factor IIa (alpha-thrombin; FIIa), plasmin, trypsin, tissue kallikrein 1 (TK1), Factor VIIa (FVIIa), or FVIIa complexed with Tissue Factor, phospholipids and CaCl2 (FVIIa/TF/PL/CaCl2) is determined using the following biochemical assays in assay buffer (100 mM Tris, 150 mM NaCL, adjusted to a pH of 7.8 with HCl, and containing 0.1% (w/v) BSA and 0.05% (v/v) Tween20) in the presence of 1% (v/v) DMSO:
Prior to the assay, human TK1 (R&D Systems) is activated by incubation with human trypsin (Calbiochem) in a 1:10,000 ratio for 15 min at 37° C. For assaying TK1 inhibitory activity, activated TK1 (31.25 nM or 1 U/mL) is incubated at 24° C. with 0.1 mM fluorogenic substrate H-Pro-Phe-Arg-AMC (11295 from Bachem) and various concentrations of the test compound in assay buffer. Measurements are performed in a kinetic interval every 2nd minute for 16 min using a Spectramax M5 (Molecular Devices) with the following settings of the wavelength excitation of 350 nm and wavelength emission of 450 nm.
The pIC50 values are then fitted using a four-parametric fitting procedure using GraphPad Prism (version 6; GraphPad Software, Inc.). Respective Ki values are obtained by correction of the IC50 values for the respective KM value of the used substrate (see Table A for the obtained KM values of the used substrates) using the following formula:
[formula] Where the IC50 is in molar and the KM value in mM.

T1 sequence (P03952 391-638 limits assumed): as the sequence (P03952 391-638 limits assumed) above
T1 sequence (P03952 20-390 limits assumed): as the sequence (P03952 20-390 limits assumed) above

Row | SMILES | IC50 [1] | IC50 (Human PKK) | Ki (human TK1)
1 | Cn1cnc2c1CC[C@H]2NC(=O)c1cnn(Cc2ccc(N3CC4(CC4)C3)nc2C(F)F)c1 [Example 52, 1-[(6-{5-Azaspiro[2.3]hexan-5-yl}-2-(difluoromethyl)-pyridin-3-yl)methyl]-N-[(4R)-1-methyl-1H,4H,5H,6H-cyclopenta[d]imidazol-4-yl]-1H-pyrazole-4-carboxamide] | 155 nM | 1.1 nM | > 10000 nM
2 | CCc1nc(N2CC3CC3C2)ccc1Cn1cnc(C(=O)N[C@@H]2CCc3c2ncn3C)c1 (stereo partly drawn) [Example 75, 1-[(6-{3-Azabicyclo[3.1.0]hexan-3-yl}-2-ethylpyridin-3-yl)methyl]-N-[(4R)-1-methyl-1H,4H,5H,6H-cyclopenta[d]imidazol-4-yl]-1H-imidazole-4-carboxamide] | 192 nM | 0.5 nM | > 10000 nM
3 | Cn1cnc2c1CC[C@H]2NC(=O)c1cnn(Cc2ccc(N3CC4C(C3)C4(F)F)nc2)c1 (stereo partly drawn) [Example 80, 1-[(6-{6,6-Difluoro-3-azabicyclo[3.1.0]hexan-3-yl}pyridin-3-yl)methyl]-N-[(4R)-1-methyl-1H,4H,5H,6H-cyclopenta[d]imidazol-4-yl]-1H-pyrazole-4-carboxamide] | 495 nM | 4.7 nM | > 10000 nM
4 | Cn1cnc2c1CC[C@H]2NC(=O)c1cnn(Cc2ccc(N3CC4CC4C3)nc2CO)c1 (stereo partly drawn) [Example 86, 1-[(6-{3-Azabicyclo[3.1.0]hexan-3-yl}-2-(hydroxymethyl)-pyridin-3-yl)methyl]-N-[(4R)-1-methyl-1H,4H,5H,6H-cyclopenta[d]imidazol-4-yl]-1H-pyrazole-4-carboxamide] | 597 nM | 1.2 nM | > 10000 nM
5 | Cc1nc(N2CC3C(C2)C3(F)F)ccc1Cn1cc(C(=O)N[C@@H]2CCc3c2ncn3C)cn1 (stereo partly drawn) [Example 90, 1-[(6-{6,6-Difluoro-3-azabicyclo[3.1.0]hexan-3-yl}-2-methylpyridin-3-yl)methyl]-N-[(4R)-1-methyl-1H,4H,5H,6H-cyclopenta[d]imidazol-4-yl]-1H-pyrazole-4-carboxamide] | 126 nM | 0.7 nM | > 10000 nM
6 | Cc1nc(N2CC3C(C2)C3(F)F)ccc1Cn1cc(C(=O)N[C@@H]2CCc3c2ncn3C)c(CO)n1 (stereo partly drawn) [Example 107, 1-[(6-{6,6-Difluoro-3-azabicyclo[3.1.0]hexan-3-yl}-2-methylpyridin-3-yl)methyl]-3-(hydroxymethyl)-N-[(4R)-1-methyl-1H,4H,5H,6H-cyclopenta[d]imidazol-4-yl]-1H-pyrazole-4-carboxamide] | 324 nM | 1 nM | > 10000 nM
7 | Cn1cnc2c1CC[C@H]2NC(=O)c1cn(Cc2ccc(N3CC4CC4C3)nc2F)cn1 (stereo partly drawn) [Example 108, 1-[(6-{3-Azabicyclo[3.1.0]hexan-3-yl}-2-fluoropyridin-3-yl)methyl]-N-[(4R)-1-methyl-1H,4H,5H,6H-cyclopenta[d]imidazol-4-yl]-1H-imidazole-4-carboxamide] | 465 nM | 1.7 nM | > 10000 nM
8 | CCCc1nc(N2CC3CC3C2)ccc1Cn1cnc(C(=O)N[C@@H]2CCc3c2ncn3C)c1 (stereo partly drawn) [Example 110, 1-[(6-{3-Azabicyclo[3.1.0]hexan-3-yl}-2-propylpyridin-3-yl)methyl]-N-[(4R)-1-methyl-1H,4H,5H,6H-cyclopenta[d]imidazol-4-yl]-1H-imidazole-4-carboxamide] | 784 nM | 0.9 nM | > 10000 nM
9 | Cn1cnc2c1CC[C@H]2NC(=O)c1cnn(Cc2cnc(N3CC4CC4C3)c(C#N)c2)c1 (stereo partly drawn) [Example 114, 1-[(6-{3-Azabicyclo[3.1.0]hexan-3-yl}-5-cyanopyridin-3-yl)methyl]-N-[(4R)-1-methyl-1H,4H,5H,6H-cyclopenta[d]imidazol-4-yl]-1H-pyrazole-4-carboxamide] | 14700 nM | 1.8 nM | > 10000 nM
10 | Cn1cnc2c1CC[C@H]2NC(=O)c1cnn(Cc2cnc(N3CC4CC4C3)cc2C(F)(F)F)c1 (stereo partly drawn) [Example 115, 1-[(6-{3-Azabicyclo[3.1.0]hexan-3-yl}-4-(trifluoromethyl)pyridin-3-yl)methyl]-N-[(4R)-1-methyl-1H,4H,5H,6H-cyclopenta[d]imidazol-4-yl]-1H-pyrazole-4-carboxamide] | 2660 nM | 4.1 nM | > 10000 nM
11 | Cc1c(Cn2cc(C(=O)N[C@@H]3CCc4c3ncn4C)cn2)cnc(N2CC3CC3C2)c1C#N (stereo partly drawn) [Example 116, 1-[(6-{3-Azabicyclo[3.1.0]hexan-3-yl}-5-cyano-4-methylpyridin-3-yl)methyl]-N-[(4R)-1-methyl-1H,4H,5H,6H-cyclopenta[d]imidazol-4-yl]-1H-pyrazole-4-carboxamide] | 278 nM | 0.4 nM | 871 nM
12 | Cn1cnc2c1CC[C@H]2NC(=O)c1cnn(Cc2ccc(N3CC4CC4C3)nc2C2CC2)c1 (stereo partly drawn) [Example 117, 1-[(6-{3-Azabicyclo[3.1.0]hexan-3-yl}-2-cyclopropylpyridin-3-yl)methyl]-N-[(4R)-1-methyl-1H,4H,5H,6H-cyclopenta[d]imidazol-4-yl]-1H-pyrazole-4-carboxamide] | 1540 nM | 2.2 nM | > 10000 nM
13 | Cc1c(Cn2cnc(C(=O)N[C@@H]3CCc4c3ncn4C)c2)cnc(N2CC3CC3C2)c1C#N (stereo partly drawn) [Example 118, 1-[(6-{3-Azabicyclo[3.1.0]hexan-3-yl}-5-cyano-4-methylpyridin-3-yl)methyl]-N-[(4R)-1-methyl-1H,4H,5H,6H-cyclopenta[d]imidazol-4-yl]-1H-imidazole-4-carboxamide] | 157 nM | 0.3 nM | > 10000 nM
14 | Cc1nc(N2CC3CC3C2)ccc1Cn1cc(C(=O)N[C@@H]2CCc3c2ncn3C)c(C(F)(F)F)n1 (stereo partly drawn) [Example 119, 1-[(6-{3-Azabicyclo[3.1.0]hexan-3-yl}-2-methylpyridin-3-yl)methyl]-N-[(4R)-1-methyl-1H,4H,5H,6H-cyclopenta[d]imidazol-4-yl]-3-(trifluoromethyl)-1H-pyrazole-4-carboxamide] | 1460 nM | 1.2 nM | 1060 nM
15 | Cn1cnc2c1CC[C@H]2NC(=O)c1cn(Cc2cnc(N3CC4CC4C3)cc2Cl)cn1 (stereo partly drawn) [Example 120, 1-[(6-{3-Azabicyclo[3.1.0]hexan-3-yl}-4-chloropyridin-3-yl)methyl]-N-[(4R)-1-methyl-1H,4H,5H,6H-cyclopenta[d]imidazol-4-yl]-1H-imidazole-4-carboxamide] | 934 nM | 2.4 nM | > 10000 nM
16 | Cn1cnc2c1CC[C@H]2NC(=O)c1cn(Cc2cnc(N3CC4CC4C3)cc2C(F)(F)F)cn1 (stereo partly drawn) [Example 121, 1-[(6-{3-Azabicyclo[3.1.0]hexan-3-yl}-4-(trifluoromethyl)pyridin-3-yl)methyl]-N-[(4R)-1-methyl-1H,4H,5H,6H-cyclopenta[d]imidazol-4-yl]-1H-imidazole-4-carboxamide] | 514 nM | 1.6 nM | > 10000 nM
17 | Cn1cnc2c1CC[C@H]2NC(=O)c1cn(Cc2ccc(N3CC4CC4C3)nc2Cl)cn1 (stereo partly drawn) [Example 122, 1-[(6-{3-Azabicyclo[3.1.0]hexan-3-yl}-2-chloropyridin-3-yl)methyl]-N-[(4R)-1-methyl-1H,4H,5H,6H-cyclopenta[d]imidazol-4-yl]-1H-imidazole-4-carboxamide] | 492 nM | 1.5 nM | > 10000 nM
18 | COCc1nn(Cc2ccc(N3CC4CC4C3)nc2C)cc1C(=O)N[C@@H]1CCc2c1ncn2C (stereo partly drawn) [Example 123, 1-[(6-{3-Azabicyclo[3.1.0]hexan-3-yl}-2-methylpyridin-3-yl)methyl]-3-(methoxymethyl)-N-[(4R)-1-methyl-1H,4H,5H,6H-cyclopenta-[d]imidazol-4-yl]-1H-pyrazole-4-carboxamide] | 1320 nM | 0.9 nM | > 10000 nM
19 | Cc1nc(N2CC3CC3C2)c(C#N)cc1Cn1cnc(C(=O)N[C@@H]2CCc3c2ncn3C)c1 (stereo partly drawn) [Example 124, 1-[(6-{3-Azabicyclo[3.1.0]hexan-3-yl}-5-cyano-2-methylpyridin-3-yl)methyl]-N-[(4R)-1-methyl-1H,4H,5H,6H-cyclopenta[d]imidazol-4-yl]-1H-imidazole-4-carboxamide] | 823 nM | 2.4 nM | > 10000 nM
